Assay type in all cases: cell-based
Assay [1] has as its target T1, human serotonin transporter (Homo sapiens, UniProt P31645).
T1 construct: expressed in transfected cells
In words: Inhibitory action on human serotonin transporter ([3H]-5-hydroxytryptamine uptake in CHO cells). The note with it: CHO, compound 1 μM; relative to inhibitory activity of 10 μM Paroxetine as 100%; read-out: inhibitory rate (%). An excerpt:
(§1) Human serotonin transporter cDNA was amplified from human brain cDNA library by PCR, and inserted into pCRII-TOPO vector (manufactured by Invitrogen). The base sequence was confirmed and modified, and subcloned to pcDNA3.1 vector (manufactured by Invitrogen), whereby a human serotonin transporter expression plasmid was constructed. Human norepinephrine transporter cDNA was purchased from Invitrogen, and the base sequence was confirm and modified, and subcloned to pcDNA3.1 vector, whereby a human norepinephrine transporter expression plasmid was constructed.
(§2) The monoamine transporter expression plasmids thus prepared were introduced into CHO-K1 cells using FuGENE6 (manufactured by Roche Diagnostics) and according to the attached protocol, whereby each expressing cell was established.
CHO cells stably expressing a human serotonin transporter were used for the measurement of human serotonin transporter inhibitory activity. Unless particularly indicated, these CHO cells were cultured in a Ham/F12 medium (Invitrogen) containing 10% fetal bovine serum (MOREGATE).
The cultured cells that reached almost confluent were rinsed with PBS (Invitrogen), detached with Trypsin/EDTA (Invitrogen), and collected by a centrifugal operation. The obtained cells were counted, and diluted to 3×10^5 cells per 1 mL medium, the mixture was dispensed to a 96 well white plate (Corning) at 100 μL per well, and cultured overnight in a CO2 incubator.
(§3) Then, an assay buffer (126 mM NaCl, 4.95 mM KCl, 1.26 mM KH2PO4, 1.26 mM MgSO4, 10 mM HEPES, 2.32 mM CaCl2, 5.52 mM Glucose, 0.5% BSA) was prepared, the medium in the cell plate was removed and the assay buffer was added by 80 μL. A test compound was diluted with the assay buffer to a 10-fold concentration of the final concentration, and the mixture was dispensed to a 96 well polypropylene plate. The diluted test compound was dispensed to the cell plate by 10 μL. [3H]-5-Hydroxytryptamine (GE Healthcare) was diluted with the assay buffer to 200 nM, and the mixture was dispensed to the cell plate by 10 μL. At 20 min from [3H]-5-hydroxytryptamine addition, the assay buffer was removed by suction, and the plate was washed twice with 150 μL of PBS (Invitrogen) per well. Microscinti20 (PerkinElmer) was dispensed to each well by 100 μL, and the mixture was stirred for about 30 min. The radioactivity was measured by TopCount (PerkinElmer).
The inhibitory activity of each compound (10 μM) was calculated as a relative activity value based on the inhibitory activity of 10 μM Paroxetine (serotonin transporter inhibitor) as 100%.
In addition, the inhibitory activity of each compound (1 μM) was calculated as a relative activity value based on the inhibitory activity of 10 μM Paroxetine (serotonin transporter inhibitor) as 100%.

The target of assay [2] is T2, human norepinephrine transporter (Homo sapiens, UniProt P23975).
T2 construct: expressed in transfected cells
In words: Inhibitory action on human norepinephrine transporter ([3H]-norepinephrine uptake in CHO cells). The note with it: CHO, compound 1 μM; relative to inhibitory activity of 10 μM DMI as 100%; read-out: inhibitory rate (%).
Source text: as §1, §2
CHO cells stably expressing human norepinephrine transporter were used for the measurement of human norepinephrine transporter inhibitory activity. Unless otherwise indicated, these CHO cells were cultured in Ham/F12 medium (Invitrogen) containing 10% fetal bovine serum (MOREGATE).
The cultured cells that reached almost confluent were rinsed with PBS (Invitrogen), detached with Trypsin/EDTA (Invitrogen), and collected by a centrifugal operation. The obtained cells were counted, and diluted to 3×10^5 cells per 1 mL medium, and the mixture was dispensed to a 96 well white plate (Corning) at 100 μL per well, and cultured overnight in a CO2 incubator.
as §3, with “μL. [3H]-Norepinephrine” for “μL. [3H]-5-Hydroxytryptamine”, “At 45” for “At 20”, “from [3H]-norepinephrine” for “from [3H]-5-hydroxytryptamine”
The inhibitory activity of each compound (10 μM) was calculated as a relative activity value based on the inhibitory activity of 10 μM DMI (norepinephrine transporter inhibitor) as 100%.
The inhibitory activity of each compound (1 μM) was calculated as a relative activity value based on the inhibitory activity of 10 μM DMI (norepinephrine transporter inhibitor) as 100%.

Assay [3] deals with T3, human dopamine transporter (Homo sapiens, UniProt Q01959).
T3 construct: expressed in transfected cells
In words: Inhibitory action on human dopamine transporter ([3H]-dopamine uptake in CHO cells). The note with it: CHO, compound 1 μM; relative to inhibitory activity of 100 μM Nomifensine as 100%; read-out: inhibitory rate (%).
Source text: SRα promoter contained in pTB1411 described in JP-A-H5-076385 was cleaved with restriction enzyme […](manufactured by TAKARA BIO INC.), blunt-ended, further cleaved with restriction enzyme EcoRI (manufactured by TAKARA BIO INC.), and fragmented. On the other hand, pCI vector was cleaved with restriction enzyme BglII (manufactured by TAKARA BIO INC.), blunt-ended with T4 DNA polymerase, and further cleaved with restriction enzyme EcoRI (manufactured by TAKARA BIO INC.). Into this site was inserted an SRa promoter fragment to give pCI-SRa. Then, pCI-SRa was cleaved with restriction enzyme ClaI (manufactured by TAKARA BIO INC.) and blunt-ended. Into this site was inserted a 1.63 Kb fragment obtained by cleaving pGFP-C1 (manufactured by TOYOBO) with restriction enzyme Bsu36I (manufactured by Daiichi Pure Chemicals Co., Ltd.) followed by blunt-ending, whereby pMSRα neo was prepared. Human dopamine transporter cDNA was amplified from human substantia nigra cDNA library by PCR, and inserted into the pCRII vector (manufactured by Invitrogen). The base sequence was confirmed, modified and subcloned to pMSRα neo, whereby a human dopamine transporter expression plasmid was constructed.
as §2
CHO cells stably expressing human dopamine transporter were used for the measurement of human dopamine transporter inhibitory activity. Unless otherwise indicated, these CHO cells were cultured in Ham/F12 medium (Invitrogen) containing 10% fetal bovine serum (MOREGATE).
One day before the assay, the cultured cells that reached almost confluent were rinsed with PBS (Invitrogen), detached with Trypsin/EDTA (Invitrogen), and collected by a centrifugal operation. The obtained cells were counted, and diluted to 3×10^5 cells per 1 mL medium, and the mixture was dispensed to a 96 well white plate (Corning) at 100 μL per well, and cultured overnight in a CO2 incubator.
as §3, with “On the day of the test, an” for “Then, an”, “μL. [3H]-Dopamine” for “μL. [3H]-5-Hydroxytryptamine”, “nM, cold dopamine was diluted to 10 μM,” for “nM,”, “At 60” for “At 20”, “from [3H]-dopamine” for “from [3H]-5-hydroxytryptamine”
The inhibitory activity of each compound (10 μM) was calculated as a relative activity value based on the inhibitory activity of 100 μM Nomifensine (dopamine transporter inhibitor) as 100%.
The inhibitory activity of each compound (1 μM) was m calculated as a relative activity value based on the inhibitory activity of 100 μM Nomifensine (dopamine transporter inhibitor) as 100%.

Molecules are shown by their SMILES. Structures can show the parent of a compound that is named as a salt.

T3 sequence (Q01959 whole entry): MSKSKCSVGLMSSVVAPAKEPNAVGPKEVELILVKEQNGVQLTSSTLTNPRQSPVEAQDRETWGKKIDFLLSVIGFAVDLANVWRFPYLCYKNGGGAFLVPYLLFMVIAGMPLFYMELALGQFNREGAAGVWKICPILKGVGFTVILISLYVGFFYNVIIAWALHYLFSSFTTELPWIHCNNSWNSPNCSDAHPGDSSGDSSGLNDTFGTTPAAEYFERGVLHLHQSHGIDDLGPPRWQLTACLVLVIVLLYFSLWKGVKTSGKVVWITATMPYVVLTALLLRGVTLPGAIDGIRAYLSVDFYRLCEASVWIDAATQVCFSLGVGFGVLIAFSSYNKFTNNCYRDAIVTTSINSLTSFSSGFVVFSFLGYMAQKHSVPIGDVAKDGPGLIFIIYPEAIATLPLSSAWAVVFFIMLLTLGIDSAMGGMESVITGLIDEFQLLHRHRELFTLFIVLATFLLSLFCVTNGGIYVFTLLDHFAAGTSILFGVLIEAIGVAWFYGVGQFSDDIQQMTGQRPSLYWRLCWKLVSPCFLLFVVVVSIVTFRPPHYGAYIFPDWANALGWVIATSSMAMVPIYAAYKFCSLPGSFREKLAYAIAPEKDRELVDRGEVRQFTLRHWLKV
T1 sequence (P31645 whole entry): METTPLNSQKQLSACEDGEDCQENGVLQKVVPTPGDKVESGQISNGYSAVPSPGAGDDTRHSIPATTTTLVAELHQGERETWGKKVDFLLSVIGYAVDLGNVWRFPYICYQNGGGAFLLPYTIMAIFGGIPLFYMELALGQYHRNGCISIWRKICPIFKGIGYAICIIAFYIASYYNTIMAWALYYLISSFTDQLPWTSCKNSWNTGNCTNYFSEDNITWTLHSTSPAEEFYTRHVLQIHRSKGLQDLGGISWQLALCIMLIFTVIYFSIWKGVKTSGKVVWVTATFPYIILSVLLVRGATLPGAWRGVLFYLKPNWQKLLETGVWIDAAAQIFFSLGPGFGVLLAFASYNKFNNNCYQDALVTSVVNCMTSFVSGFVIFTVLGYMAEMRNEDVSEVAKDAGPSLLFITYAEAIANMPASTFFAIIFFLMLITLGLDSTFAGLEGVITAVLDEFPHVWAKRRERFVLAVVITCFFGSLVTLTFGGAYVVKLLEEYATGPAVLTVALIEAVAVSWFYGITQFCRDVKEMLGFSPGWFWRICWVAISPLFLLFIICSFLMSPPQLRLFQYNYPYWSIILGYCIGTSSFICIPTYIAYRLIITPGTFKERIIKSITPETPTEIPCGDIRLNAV
T2 sequence (P23975 whole entry): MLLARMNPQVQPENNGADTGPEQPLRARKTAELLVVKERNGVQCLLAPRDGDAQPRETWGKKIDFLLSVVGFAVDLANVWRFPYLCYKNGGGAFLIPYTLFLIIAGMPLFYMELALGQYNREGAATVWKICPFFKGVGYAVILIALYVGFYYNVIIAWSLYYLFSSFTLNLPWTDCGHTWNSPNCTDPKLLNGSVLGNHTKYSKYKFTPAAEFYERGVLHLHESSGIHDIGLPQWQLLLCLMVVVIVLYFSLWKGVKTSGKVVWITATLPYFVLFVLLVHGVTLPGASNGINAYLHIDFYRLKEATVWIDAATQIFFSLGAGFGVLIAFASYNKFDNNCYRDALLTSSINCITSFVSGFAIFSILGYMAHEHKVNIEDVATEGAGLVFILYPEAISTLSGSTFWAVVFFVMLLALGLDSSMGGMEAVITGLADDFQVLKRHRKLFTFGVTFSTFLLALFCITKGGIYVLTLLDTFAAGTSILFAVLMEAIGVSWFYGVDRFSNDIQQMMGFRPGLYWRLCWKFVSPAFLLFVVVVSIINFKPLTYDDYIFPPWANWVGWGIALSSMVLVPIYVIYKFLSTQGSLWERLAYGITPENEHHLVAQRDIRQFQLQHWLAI

On to `CC(=O)N[C@@H]1CNCCO[C@@H]1c1ccc(Cl)c(Cl)c1` (racemic) [Example 62, N-[(6RS,7RS)-7-(3,4-dichlorophenyl)-1,4-oxazepan-6-yl]acetamide monohydrochloride], for which the inhibition at 1 µM came to 98% in assay [1], 100% in assay [2] and 64% in assay [3].
`CS(=O)(=O)N[C@@H]1CNCCO[C@@H]1c1ccc(Cl)c(Cl)c1` (racemic) [Example 63, N-[(6RS,7RS)-7-(3,4-dichlorophenyl)-1,4-oxazepan-6-yl]methanesulfonamide monohydrochloride]: the inhibition at 1 µM in assay [1] is 93%; in assay [2], 100%; in assay [3], 82%.
The corresponding values for `CS(=O)(=O)NC[C@@]1(O)CNCCO[C@@H]1c1ccc(Cl)c(Cl)c1` (racemic) [Example 162, N-{[(6RS,7SR)-7-(3,4-dichlorophenyl)-6-hydroxy-1,4-oxazepan-6-yl]methyl}methanesulfonamide monohydrochloride] are 65%, 105% and 40%.
For `O[C@H]1CNCCO[C@@H]1c1ccc(Cl)c(Cl)c1` (racemic) [Example 230, (6RS,7SR)-7-(3,4-dichlorophenyl)-1,4-oxazepan-6-ol monohydrochloride], in that order: 59%, 100% and 25%.
The corresponding values for `O=c1[nH]c(-c2cccnc2O[C@H]2CNCCOC2c2ccc(Cl)c(Cl)c2)no1` (mixture of isomers) [Example 236, 3-(2-{[(6RS,7SR)-7-(3,4-dichlorophenyl)-1,4-oxazepan-yl]oxy}pyridin-3-yl)-1,2,4-oxadiazol-5(4H)-one monohydrochloride] are 92%, 105% and 93%.
With `OC[C@@H]1CNCCO[C@@H]1c1ccc(F)c(Cl)c1` (racemic) [Example 278, [(6RS,7RS)-7-(3-chloro-4-fluorophenyl)-1,4-oxazepan-6-yl]methanol monohydrochloride], the inhibition at 1 µM worked out at 87% in assay [1], 91% in assay [2] and 13% in assay [3].
The corresponding values for `CS(=O)(=O)C[C@@H]1CNCCOC1c1ccc(F)c(Cl)c1` (mixture of isomers) [Example 281, (6RS,7SR)-7-(3-chloro-4-fluorophenyl)-6-[(methylsulfonyl)methyl]-1,4-oxazepane monohydrochloride] are 95%, 95% and 22%.
The corresponding values for `CS(=O)(=O)NC[C@H]1CNCCO[C@@H]1c1ccc(F)c(Cl)c1` (racemic) [Example 293, N-{[(6RS,7SR)-7-(3-chloro-4-fluorophenyl)-1,4-oxazepan-6-yl]methyl}methanesulfonamide monohydrochloride] are 65%, 95% and 31%.
The corresponding values for `OC[C@H]1CNCCO[C@@H]1c1cc2ccccc2s1` (racemic) [Example 410, [(6RS,7SR)-7-(1-benzothiophen-2-yl)-1,4-oxazepan-6-yl]methanol monohydrochloride] are 91%, 103% and 32%.
For `CCOC(=O)[C@H]1NCCOC[C@@H]1c1ccc(Cl)c(Cl)c1` (racemic) [Example 412, ethyl (5RS,6SR)-6-(3,4-dichlorophenyl)-1,4-oxazepane-5-carboxylate monohydrochloride], the inhibition at 1 µM in assay [1] came out at 8%; in assay [2] it was 86%; in assay [3], 83%.
The corresponding values for `COC[C@@H]1OCCNC[C@@H]1c1ccc(Cl)c(Cl)c1` (racemic) [Example 449, (6RS,7SR)-6-(3,4-dichlorophenyl)-7-(methoxymethyl)-1,4-oxazepane monohydrochloride] are 53%, 100% and 58%.
Turning to `O=C(Cn1cncn1)NC[C@@H]1OCCNC[C@@H]1c1ccc(Cl)c(Cl)c1` (racemic) [Example 457, N-{[(6RS,7SR)-6-(3,4-dichlorophenyl)-1,4-oxazepan-7-yl]methyl}-2-(1H-1,2,4-triazol-1-yl)acetamide monohydrochloride], the inhibition at 1 µM in assay [1] turned out to be 27%; in assay [2], 101%; in assay [3], 47%.
